From patent publication US20230339900A1, “CASEIN KINASE 1 DELTA MODULATORS” (Janssen Pharmaceutica NV, priority 2020, published 2023) come the findings set out here.

The target of experiment [1] is human CSNK1D tagged with nanoluciferase (Homo sapiens (Human), UniProt P48730). Briefly: Whole Cell nBRET CSNK1D Binding Assay. The following applies: living CHO cells stably expressing human CSNK1D-nanoluciferase; NanoBret tracer 130 nM; 2 hours 37° C.; read-out: CSNK1D BRET IC50. A digest of the protocol: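 IC50 values come from milliBRET ratios ((E630/E450)*1000) fitted against log compound concentration. Tracer displacement was run in living CHO cells stably expressing NanoLuc-fused CSNK1D, with dosed compounds and 130 nM tracer incubated 2 h at 37 °C in serum-free OptiMEM before substrate addition and donor/acceptor reading.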
human CSNK1D tagged with nanoluciferase, sequence (P48730 whole entry, the tested form may be a part): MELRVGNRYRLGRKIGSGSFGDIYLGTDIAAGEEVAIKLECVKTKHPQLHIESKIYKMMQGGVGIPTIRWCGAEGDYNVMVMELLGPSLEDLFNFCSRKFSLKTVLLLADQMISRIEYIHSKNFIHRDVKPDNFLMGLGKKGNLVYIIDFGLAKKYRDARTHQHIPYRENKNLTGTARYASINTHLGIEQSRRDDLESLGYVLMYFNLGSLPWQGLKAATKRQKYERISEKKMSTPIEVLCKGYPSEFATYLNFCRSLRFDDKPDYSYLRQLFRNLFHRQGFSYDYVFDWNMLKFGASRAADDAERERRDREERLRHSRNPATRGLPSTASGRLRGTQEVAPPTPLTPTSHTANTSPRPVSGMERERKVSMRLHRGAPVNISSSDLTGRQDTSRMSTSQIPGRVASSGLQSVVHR
For orientation: In BRET a luciferase serves as donor, and the signal depends on an acceptor being close.

The target of experiment [2] is human recombinant GST cleaved CSNK1D (Homo sapiens (Human), UniProt P48730). Briefly: Purified enzyme assay (ADP-Glo Kinase Assay). The experiment is classed as biochemical. The following applies: 2 nM CSNK1D, peptide substrate 150 μM, ATP 20 μM, 45 minutes room temperature.
human recombinant GST cleaved CSNK1D, sequence (P48730 whole entry): as the sequence (P48730 whole entry, the tested form may be a part) above

For orientation: IC50 means the concentration at which inhibition is half-maximal. What is called AC50 is the concentration at which the activity in the assay is half-maximal. With `Cn1cc(-c2ccnc3sccc23)c(-c2ccc(F)cn2)n1` [Example 145, 4-[3-(5-Fluoro-2-pyridyl)-1-methyl-pyrazol-4-yl]thieno[2,3-b]pyridine], the IC50 in experiment [1] came to 0.778 µM. Moreover, the AC50 in experiment [2] worked out at 0.04 µM.

As for `CC(C)c1n[nH]c2nccc(-c3cn(C)nc3-c3ccc(F)cn3)c12` [Example 122, 4-[3-(5-Fluoro-2-pyridyl)-1-methyl-pyrazol-4-yl]-3-isopropyl-1H-pyrazolo[3,4-b]pyridine], the concentration for half-maximal inhibition (IC50) in experiment [1] is above 10 µM. Further, the AC50 in experiment [2] turned out to be 0.015 µM.

In the case of `Cc1cnc(-c2nn(C)cc2-c2ccnc3[nH]ccc23)cn1` [Example 47, 4-[1-Methyl-3-(5-methylpyrazin-2-yl)pyrazol-4-yl]-1H-pyrrolo[2,3-b]pyridine], the half-inhibitory concentration (IC50) in experiment [1] was above 10 µM. Also, the concentration at half-maximal activity (AC50) in experiment [2] worked out at 0.346 µM.

Turning to `Cn1cc(-c2ccnc3[nH]ncc23)c(-c2ccc(F)cn2)n1` [Example 98, 4-(3-(5-Fluoropyridin-2-yl)-1-methyl-1H-pyrazol-4-yl)-1H-pyrazolo[3,4-b]pyridine], the IC50 in experiment [1] is 2.35 µM. The AC50 in experiment [2] is 0.076 µM.

In the case of `Cc1cncc(-c2nn(C)cc2-c2cc(C)nc3[nH]ncc23)c1` [Example 137, 6-Methyl-4-[1-methyl-3-(5-methyl-3-pyridyl)pyrazol-4-yl]-1H-pyrazolo[3,4-b]pyridine], the half-inhibitory concentration (IC50) in experiment [1] was 0.89 µM. The half-maximal activity concentration (AC50) in experiment [2] was 0.038 µM.

For `Cn1cc(-c2ccnc3cc(C#N)ccc23)c(-c2ccc(F)cn2)n1` [Example 149, 4-[3-(5-Fluoro-2-pyridyl)-1-methyl-pyrazol-4-yl]quinoline-7-carbonitrile], the half-inhibitory concentration (IC50) in experiment [1] is above 10 µM. Besides, the AC50 in experiment [2] stood at 0.124 µM.

Regarding `COc1cccc(-c2nn(C)cc2-c2cc(C)nc3[nH]ncc23)n1` [Example 34, 4-(3-(6-Methoxypyridin-2-yl)-1-methyl-1H-pyrazol-4-yl)-6-methyl-1H-pyrazolo[3,4-b]pyridine], the IC50 in experiment [1] is 1.98 µM. For the same compound, the half-maximal activity concentration (AC50) in experiment [2] came out at 0.1 µM.

With `COc1cc(OC)c2c(-c3cn(C)nc3-c3ccc(F)cn3)ccnc2c1` [Example 151, 4-[3-(5-Fluoro-2-pyridyl)-1-methyl-pyrazol-4-yl]-5,7-dimethoxy-quinoline], the IC50 in experiment [1] was 0.453 µM. Moreover, the half-maximal activity concentration (AC50) in experiment [2] is 0.038 µM.

`Cc1cnc2[nH]ccc2c1-c1cn(C)nc1-c1ccc(F)cn1` [Example 79, 4-[3-(5-Fluoro-2-pyridyl)-1-methyl-pyrazol-4-yl]-5-methyl-1H-pyrrolo[2,3-b]pyridine]: in experiment [1], the IC50 amounted to 0.052 µM. Besides, the AC50 in experiment [2] turned out to be 0.007 µM.

`Cn1cc(-c2ccnc3ccccc23)c(-c2ccc(F)cn2)n1` [Example 104, 4-[3-(5-Fluoro-2-pyridyl)-1-methyl-pyrazol-4-yl]quinoline]: in experiment [1], the half-inhibitory concentration (IC50) worked out at 1.32 µM. Moreover, in experiment [2], the concentration at half-maximal activity (AC50) worked out at 0.17 µM.

For the compound `Cn1cc(-c2ccnc3[nH]ccc23)c(-c2ncc(F)cc2F)n1` [Example 37, 4-[3-(3,5-Difluoro-2-pyridyl)-1-methyl-pyrazol-4-yl]-1H-pyrrolo[2,3-b]pyridine], the IC50 in experiment [1] came to 0.078 µM. Besides, the half-maximal activity concentration (AC50) in experiment [2] was found to be 0.015 µM.

In the case of `FCCn1cc(-c2ccnc3[nH]ccc23)c(-c2ccc(F)cn2)n1` [Example 68, 4-[1-(2-Fluoroethyl)-3-(5-fluoro-2-pyridyl)pyrazol-4-yl]-1H-pyrrolo[2,3-b]pyridine], in experiment [1], the IC50 worked out at 0.08 µM. Besides, the AC50 in experiment [2] was 0.004 µM.

As for `COc1cccc2c(-c3cn(C)nc3-c3ccc(F)cn3)ccnc12` [Example 148, 4-[3-(5-Fluoro-2-pyridyl)-1-methyl-pyrazol-4-yl]-8-methoxy-quinoline], the IC50 in experiment [1] was above 10 µM. For the same compound, the AC50 in experiment [2] is 7.09 µM.

For `CC(C)c1cc2c(-c3cn(C)nc3-c3ccc(F)cn3)ccnc2[nH]1` [Example 83, 4-(3-(5-Fluoropyridin-2-yl)-1-methyl-1H-pyrazol-4-yl)-2-isopropyl-1H-pyrrolo[2,3-b]pyridine], the 50% inhibitory concentration (IC50) in experiment [1] came out at 1.57 µM. Further, the concentration at half-maximal activity (AC50) in experiment [2] worked out at 0.054 µM.

As for `COc1ccc2nccc(-c3cn(C)nc3-c3ccc(F)cn3)c2n1` [Example 103, 8-[3-(5-Fluoro-2-pyridyl)-1-methyl-pyrazol-4-yl]-2-methoxy-1,5-naphthyridine], the IC50 in experiment [1] is 0.147 µM. The AC50 in experiment [2] came to 0.01 µM.

As to `Cn1cc(-c2c(C3COC3)cnc3[nH]ccc23)c(-c2ccc(F)cn2)n1` [Example 91, 4-(3-(5-Fluoropyridin-2-yl)-1-methyl-1H-pyrazol-4-yl)-5-(oxetan-3-yl)-1H-pyrrolo[2,3-b]pyridine], in experiment [1], the 50% inhibitory concentration (IC50) is 0.653 µM. In addition, in experiment [2], the AC50 was 0.019 µM.

As to `Cn1cc(-c2ccnc3cc(F)ccc23)c(-c2ccc(F)cn2)n1` [Example 106, 7-Fluoro-4-[3-(5-fluoro-2-pyridyl)-1-methyl-pyrazol-4-yl]quinoline], the half-maximal inhibitory concentration (IC50) in experiment [1] is 0.564 µM. The half-maximal activity concentration (AC50) in experiment [2] turned out to be 0.039 µM.

As to `Cn1cc(-c2ccnc3[nH]ccc23)c(-c2ccc(F)nc2)n1` [Example 28, 4-[3-(6-Fluoro-3-pyridyl)-1-methyl-pyrazol-4-yl]-1H-pyrrolo[2,3-b]pyridine], the IC50 in experiment [1] was determined as 0.165 µM. For the same compound, in experiment [2], the half-maximal activity concentration (AC50) is 0.008 µM.

As to `Cn1cc(-c2ccnc3cc(Cl)ccc23)c(-c2ccc(F)cn2)n1` [Example 105, 7-Chloro-4-[3-(5-fluoro-2-pyridyl)-1-methyl-pyrazol-4-yl]quinoline], in experiment [1], the IC50 worked out at 0.817 µM. The concentration at half-maximal activity (AC50) in experiment [2] is 0.025 µM.

On to `Cn1cc(-c2ccnc3c2CNC3)c(-c2ccc(F)cn2)n1` [Example 117, 4-(3-(5-Fluoropyridin-2-yl)-1-methyl-1H-pyrazol-4-yl)-6,7-dihydro-5H-pyrrolo[3,4-b]pyridine], for which the IC50 in experiment [1] was above 10 µM. The AC50 in experiment [2] came out at 0.101 µM.

As to `Cn1cc(-c2ccnc3cc(C(F)(F)F)ccc23)c(-c2ccc(F)cn2)n1` [Example 107, 4-[3-(5-Fluoro-2-pyridyl)-1-methyl-pyrazol-4-yl]-7-(trifluoromethyl)quinoline], in experiment [1], the half-inhibitory concentration (IC50) turned out to be 0.264 µM. For the same compound, the concentration at half-maximal activity (AC50) in experiment [2] turned out to be 0.031 µM.

With `CCn1cc(-c2ccnc3[nH]ccc23)c(-c2ccc(F)cn2)n1` [Example 55, 4-[1-Ethyl-3-(5-fluoro-2-pyridyl)pyrazol-4-yl]-1H-pyrrolo[2,3-b]pyridine], the half-inhibitory concentration (IC50) in experiment [1] was found to be 0.093 µM. In addition, the half-maximal activity concentration (AC50) in experiment [2] came to 0.007 µM.

Consider `CC(=O)Nc1cc(-c2cn(C)nc2-c2ccc(F)cn2)ccn1` [Example 115, N-(4-(3-(5-Fluoropyridin-2-yl)-1-methyl-1H-pyrazol-4-yl)pyridin-2-yl)acetamide], for which the IC50 in experiment [1] was 0.315 µM. Besides, in experiment [2], the AC50 was found to be 0.009 µM.

`Cc1cc(-c2cn(C)nc2-c2cncc(Cl)c2)c2cn[nH]c2n1` [Example 139, 4-[3-(5-Chloro-3-pyridyl)-1-methyl-pyrazol-4-yl]-6-methyl-1H-pyrazolo[3,4-b]pyridine]: the half-maximal inhibitory concentration (IC50) in experiment [1] was 0.506 µM. In addition, the AC50 in experiment [2] came out at 0.018 µM.

Consider `CC(C)n1cc(-c2ccnc3[nH]ccc23)c(-c2ccc(F)cn2)n1` [Example 58, 4-[3-(5-Fluoro-2-pyridyl)-1-isopropyl-pyrazol-4-yl]-1H-pyrrolo[2,3-b]pyridine], for which the half-maximal inhibitory concentration (IC50) in experiment [1] turned out to be 0.097 µM. Also, the AC50 in experiment [2] worked out at 0.017 µM.

`Cc1c[nH]c2nccc(-c3cn(C)nc3-c3ccc(F)cn3)c12` [Example 82, 4-[3-(5-Fluoro-2-pyridyl)-1-methyl-pyrazol-4-yl]-3-methyl-1H-pyrrolo[2,3-b]pyridine]: the concentration for half-maximal inhibition (IC50) in experiment [1] was found to be 0.059 µM. The AC50 in experiment [2] was determined as 0.006 µM.
